Data reported in article PMC7020476, “New Insights into the Type II Toxins from the Sea Anemone Heteractis crispa” (Toxins, 2020).
“Also recorded” adds a separate entry of the source. Where two headings read alike, the source gives them in different places. Bridges are numbered along the chain shown (N, C = ends). Roman numbers before positions name the chains, in order. Where no end group is shown, it is not given here.

Legend:
rNaV1.2 = target: T1, rNaV1.2 (Rattus norvegicus, UniProt P04775); assay: Two-electrode voltage-clamp of NaV1.2 expressed in Xenopus laevis oocytes; format: cell-based; settings: for EC50: read-out: half-maximal effective concentration (EC50), NaV1.2
T1 construct: expressed in transfected cells; host or cells: Xenopus laevis oocytes injected with cRNA
T1 sequence (P04775 whole entry): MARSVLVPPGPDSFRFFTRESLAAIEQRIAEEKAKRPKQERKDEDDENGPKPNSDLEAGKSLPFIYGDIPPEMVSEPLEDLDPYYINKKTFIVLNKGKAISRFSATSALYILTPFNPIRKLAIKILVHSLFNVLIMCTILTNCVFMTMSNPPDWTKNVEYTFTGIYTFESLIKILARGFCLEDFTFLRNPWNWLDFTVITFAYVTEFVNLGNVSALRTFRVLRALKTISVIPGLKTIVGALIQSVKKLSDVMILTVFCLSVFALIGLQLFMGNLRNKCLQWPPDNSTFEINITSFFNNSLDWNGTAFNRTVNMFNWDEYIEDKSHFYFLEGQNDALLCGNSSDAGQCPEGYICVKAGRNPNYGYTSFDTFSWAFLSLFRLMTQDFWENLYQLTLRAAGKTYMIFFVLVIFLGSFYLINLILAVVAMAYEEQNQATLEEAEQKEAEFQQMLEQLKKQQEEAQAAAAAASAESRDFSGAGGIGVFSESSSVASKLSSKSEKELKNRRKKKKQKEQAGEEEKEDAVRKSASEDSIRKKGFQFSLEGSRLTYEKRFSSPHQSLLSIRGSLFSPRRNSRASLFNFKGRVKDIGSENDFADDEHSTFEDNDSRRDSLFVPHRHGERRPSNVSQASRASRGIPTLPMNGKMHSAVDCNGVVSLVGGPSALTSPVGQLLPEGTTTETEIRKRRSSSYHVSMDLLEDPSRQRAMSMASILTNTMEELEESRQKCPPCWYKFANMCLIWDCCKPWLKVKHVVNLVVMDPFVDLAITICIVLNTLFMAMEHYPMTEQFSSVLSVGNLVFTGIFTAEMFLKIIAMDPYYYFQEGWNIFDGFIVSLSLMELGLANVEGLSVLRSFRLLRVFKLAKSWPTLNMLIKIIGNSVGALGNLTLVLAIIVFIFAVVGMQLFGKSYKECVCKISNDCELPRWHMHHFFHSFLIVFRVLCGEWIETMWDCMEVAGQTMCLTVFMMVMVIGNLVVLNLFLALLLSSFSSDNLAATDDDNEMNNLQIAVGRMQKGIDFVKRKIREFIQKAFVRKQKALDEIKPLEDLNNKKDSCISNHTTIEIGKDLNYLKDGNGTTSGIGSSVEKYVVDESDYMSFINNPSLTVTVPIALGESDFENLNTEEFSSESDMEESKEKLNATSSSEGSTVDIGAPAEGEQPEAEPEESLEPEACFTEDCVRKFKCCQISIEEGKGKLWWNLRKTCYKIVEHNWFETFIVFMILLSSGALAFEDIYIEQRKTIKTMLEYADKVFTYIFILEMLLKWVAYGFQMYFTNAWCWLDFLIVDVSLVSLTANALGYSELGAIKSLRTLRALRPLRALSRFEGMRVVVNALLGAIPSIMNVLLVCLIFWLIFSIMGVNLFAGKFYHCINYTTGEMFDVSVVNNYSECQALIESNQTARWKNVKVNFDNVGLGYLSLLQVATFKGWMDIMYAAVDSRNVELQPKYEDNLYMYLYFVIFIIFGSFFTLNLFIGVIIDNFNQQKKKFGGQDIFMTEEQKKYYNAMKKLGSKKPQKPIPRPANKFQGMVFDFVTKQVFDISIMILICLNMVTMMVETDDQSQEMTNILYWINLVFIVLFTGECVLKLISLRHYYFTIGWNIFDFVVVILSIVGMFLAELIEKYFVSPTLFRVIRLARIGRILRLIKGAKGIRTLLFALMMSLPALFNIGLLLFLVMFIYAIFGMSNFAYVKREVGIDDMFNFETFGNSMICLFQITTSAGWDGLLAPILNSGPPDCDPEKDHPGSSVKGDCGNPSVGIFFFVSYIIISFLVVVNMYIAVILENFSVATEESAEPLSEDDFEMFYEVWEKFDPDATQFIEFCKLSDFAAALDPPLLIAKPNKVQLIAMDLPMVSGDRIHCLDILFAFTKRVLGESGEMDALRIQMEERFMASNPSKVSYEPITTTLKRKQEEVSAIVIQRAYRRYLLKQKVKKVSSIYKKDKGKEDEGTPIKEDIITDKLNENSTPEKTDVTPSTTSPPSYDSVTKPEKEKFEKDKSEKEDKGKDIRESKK
Text: (§1) For the expression of NaV channels (hNaV1.1, rNaV1.2, rNaV1.3, rNaV1.4, hNaV1.5, mNaV1.6, rNaV1.8, the invertebrate channels BgNaV1.1, VdNaV1, and the auxiliary subunits rβ1, hβ1, and TipE) in Xenopus oocytes, the linearized plasmids were transcribed using the T7 or SP6 mMessage-mMachine Transcription Kit (Thermo Fisher Scientific, Waltham, MA, USA). The harvesting of stage V–VI oocytes from anesthetized female X. laevis frogs was previously described with a protocol adjustment in which the frogs were anesthetized by placement in 0.1% tricaine (amino benzoic acid ethyl ester; Millipore Sigma, Burlington, MA, USA) solution. Oocytes were injected with 50 nL of cRNA at a concentration of 1 ng/nL using a microinjector (Drummond Scientific Company, Broomall, PA, USA). The oocytes were incubated in a solution containing (mM) the following: NaCl, 96; KCl, 2; CaCl2, 1.8; MgCl2, 2; and HEPES, 5 (pH 7.4). This solution was supplemented with 50 mg/L gentamicin sulfate.
(§2) Two-electrode voltage-clamp recordings were performed at room temperature (18–22 °C) using a GeneClamp 500 amplifier (Molecular Devices, San Jose, CA, USA) controlled by a pClamp data acquisition system (Axon Instruments, Union City, CA, USA). Whole-cell currents from oocytes were recorded 1–4 d after mRNA injection. Bath solution composition was (mM) as follows: NaCl, 96; KCl, 2; CaCl2, 1.8; MgCl2, 2; and HEPES, 5 (pH 7.4). Voltage and current electrodes were filled with 3 M KCl. The resistances of both electrodes were kept between 0.8 and 1.5 MΩ. The elicited currents were filtered at 1 kHz and sampled at 20 kHz by using a 4-pole low-pass Bessel filter. Leak subtraction was performed using a -P/4 protocol.
(§3) For the electrophysiological analysis of toxins, a number of protocols were applied from a holding potential of −90 mV with a start-to-start frequency of 0.2 Hz. Na^+ current traces were evoked by 100-ms depolarizations to Vmax (the voltage corresponding to maximal Na^+ current in control conditions). The current–voltage relationships were determined by 50-ms step depolarizations between −90 and 70 mV, using 5 mV increments. The Na^+ conductance (gNa) was calculated from the currents according to Ohm’s law: gNa = INa/(V − Vrev), where INa represents the Na^+ current peak amplitude at a given test potential V, and Vrev is the reversal potential. The values of gNa were plotted as a function of voltage and fitted using the Boltzmann function: gNa/gmax = [1 + (exp(Vg − V)/k)] −1, where gmax represents maximal gNa, Vg is the voltage corresponding to half-maximal conductance, and k is the slope factor. Toxin–induced effects on the steady–state inactivation were investigated by using a standard two-step protocol. In this protocol, 100 ms conditioning 5 mV step prepulses ranging from −90 to 70 mV were followed by a 50-ms test pulse to −30 or −10 mV. Data were normalized to the maximal Na^+ current amplitude, plotted against prepulse potential, and fitted by using the Boltzmann function: INa/Imax = {(1 − C)/(1 + exp[(V − Vh)/k)]} + C, where Imax is the maximal INa, Vh is the voltage corresponding to half-maximal inactivation, V is the test voltage, k is the slope factor, and C is a constant representing a non-inactivating persistent fraction (close to 0 in control). […] I30ms/Ipeak was measured at the same test voltage after addition of the toxin. […]

mNaV1.6 = target: T2, mNaV1.6 (Mus musculus, UniProt Q9WTU3); assay: Two-electrode voltage-clamp of NaV1.6 expressed in Xenopus laevis oocytes; format: cell-based; settings: for EC50: amplitude of toxin-induced effect at 30 ms (I30ms), Hill fit, Xenopus oocytes, means ± sem, n ≥ 5, read-out: half-maximal effective concentration (EC50), NaV1.6
T2 construct: expressed in transfected cells; host or cells: Xenopus laevis oocytes injected with cRNA
T2 sequence (Q9WTU3 whole entry): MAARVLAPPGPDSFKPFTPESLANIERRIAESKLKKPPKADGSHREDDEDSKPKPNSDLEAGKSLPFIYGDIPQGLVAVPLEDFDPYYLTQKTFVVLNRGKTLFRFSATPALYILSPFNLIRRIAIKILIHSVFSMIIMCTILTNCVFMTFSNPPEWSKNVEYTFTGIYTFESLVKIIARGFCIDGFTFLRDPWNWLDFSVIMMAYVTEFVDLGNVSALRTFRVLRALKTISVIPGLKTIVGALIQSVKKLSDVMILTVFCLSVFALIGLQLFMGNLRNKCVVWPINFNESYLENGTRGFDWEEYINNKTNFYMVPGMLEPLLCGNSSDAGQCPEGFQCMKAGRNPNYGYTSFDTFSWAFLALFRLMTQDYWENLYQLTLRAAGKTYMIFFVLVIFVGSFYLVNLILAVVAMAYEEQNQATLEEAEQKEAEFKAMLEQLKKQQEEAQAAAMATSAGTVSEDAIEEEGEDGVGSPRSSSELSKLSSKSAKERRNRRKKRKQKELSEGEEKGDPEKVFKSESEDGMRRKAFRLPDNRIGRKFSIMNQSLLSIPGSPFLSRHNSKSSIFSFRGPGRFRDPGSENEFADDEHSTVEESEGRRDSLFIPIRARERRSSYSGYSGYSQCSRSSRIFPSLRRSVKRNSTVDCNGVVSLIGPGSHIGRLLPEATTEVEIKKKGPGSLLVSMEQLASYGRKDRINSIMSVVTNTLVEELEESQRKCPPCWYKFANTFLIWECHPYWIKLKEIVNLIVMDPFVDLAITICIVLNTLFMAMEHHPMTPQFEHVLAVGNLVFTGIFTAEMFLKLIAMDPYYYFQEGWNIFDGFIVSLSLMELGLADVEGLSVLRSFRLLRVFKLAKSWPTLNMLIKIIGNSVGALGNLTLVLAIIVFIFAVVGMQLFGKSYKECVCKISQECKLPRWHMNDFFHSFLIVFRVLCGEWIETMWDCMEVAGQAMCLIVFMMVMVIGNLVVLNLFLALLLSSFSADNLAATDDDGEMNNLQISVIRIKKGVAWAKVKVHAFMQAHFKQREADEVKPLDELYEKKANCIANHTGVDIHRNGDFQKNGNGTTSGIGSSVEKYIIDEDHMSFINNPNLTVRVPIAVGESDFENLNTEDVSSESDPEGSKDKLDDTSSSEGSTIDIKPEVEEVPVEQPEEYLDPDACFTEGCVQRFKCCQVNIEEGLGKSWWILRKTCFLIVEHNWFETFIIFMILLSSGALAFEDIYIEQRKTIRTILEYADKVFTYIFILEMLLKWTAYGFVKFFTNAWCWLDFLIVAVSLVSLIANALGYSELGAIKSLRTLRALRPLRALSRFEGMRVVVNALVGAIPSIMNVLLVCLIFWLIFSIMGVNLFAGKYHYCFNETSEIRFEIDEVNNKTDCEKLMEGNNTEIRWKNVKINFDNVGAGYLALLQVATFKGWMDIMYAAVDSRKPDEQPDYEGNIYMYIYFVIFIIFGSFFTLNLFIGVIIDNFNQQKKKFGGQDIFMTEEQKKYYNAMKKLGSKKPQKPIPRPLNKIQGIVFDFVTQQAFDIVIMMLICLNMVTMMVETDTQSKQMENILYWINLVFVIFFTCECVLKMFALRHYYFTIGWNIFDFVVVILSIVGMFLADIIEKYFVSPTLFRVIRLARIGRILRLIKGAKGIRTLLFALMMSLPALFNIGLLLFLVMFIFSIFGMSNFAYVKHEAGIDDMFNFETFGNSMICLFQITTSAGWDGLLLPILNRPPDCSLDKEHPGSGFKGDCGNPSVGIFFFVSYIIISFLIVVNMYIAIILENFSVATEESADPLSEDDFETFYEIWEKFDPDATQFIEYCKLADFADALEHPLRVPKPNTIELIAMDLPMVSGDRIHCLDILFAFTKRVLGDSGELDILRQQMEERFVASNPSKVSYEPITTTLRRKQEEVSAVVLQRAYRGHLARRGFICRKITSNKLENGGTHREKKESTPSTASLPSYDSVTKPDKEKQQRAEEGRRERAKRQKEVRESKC
Text: as §1, §2
as §3, with “protocol.” for “protocol. In this protocol, 100 ms conditioning 5 mV step prepulses ranging from −90 to 70 mV were followed by a 50-ms test pulse to −30 or −10 mV. Data were normalized to the maximal Na^+ current amplitude, plotted against prepulse potential, and fitted by using the Boltzmann function: INa/Imax = {(1 − C)/(1 + exp[(V − Vh)/k)]} + C, where Imax is the maximal INa, Vh is the voltage corresponding to half-maximal inactivation, V is the test voltage, k is the slope factor, and C is a constant representing a non-inactivating persistent fraction (close to 0 in control).”

BgNaV1 = BgNaV1 (Blattella germanica, UniProt O01306); assay: Two-electrode voltage-clamp of BgNaV1 expressed in Xenopus laevis oocytes; format: cell-based, insect; settings: for EC50: amplitude of toxin-induced effect at 30 ms (I30ms), Hill fit, Xenopus oocytes, means ± sem, n ≥ 5, read-out: half-maximal effective concentration (EC50), BgNaV1
Text: as §1, §2
as §3, with “protocol.” for “protocol. In this protocol, 100 ms conditioning 5 mV step prepulses ranging from −90 to 70 mV were followed by a 50-ms test pulse to −30 or −10 mV. Data were normalized to the maximal Na^+ current amplitude, plotted against prepulse potential, and fitted by using the Boltzmann function: INa/Imax = {(1 − C)/(1 + exp[(V − Vh)/k)]} + C, where Imax is the maximal INa, Vh is the voltage corresponding to half-maximal inactivation, V is the test voltage, k is the slope factor, and C is a constant representing a non-inactivating persistent fraction (close to 0 in control).”

mice [1] = assay: Toxicity in mice; format: in vivo, adult male CD-1 mice; settings: intraperitoneal, six animals per sample, 24 hours
Experimental: The care and use of animals were performed in an agreement with the requirements of local and international legislation as well as of the Directive 2010/63/EU for animal experiments.
Adult male CD-1 mice weighing 20–22 g were kept at room temperature with a 12-h light/dark cycle and with ad libitum access to food and water. Each animal was used only once and was euthanized in the CO2 chamber immediately after completion of the experiment. Animal procedures were approved by the Animal Care and Use Committee of the PIBOC FEB RAS.
The peptides (0.15–300 μg) were dissolved in 100 μL of sterile saline (0.9% NaCl) and injected intraperitoneally. Six animals were used per sample. To assess peptide toxicity, the maximum non-toxic dose was determined as an amount (mg) of the tested peptide per kg of the mouse weight, at which there was no observed toxic or adverse effect within 24 hours.

mice [2] = settings: cited from earlier work
Text: The only difference observed within our electrophysiological experiments that may underlie this phenomenon is a different activity of both toxins on NaV1.2 and NaV1.3 subtypes (Figure 5, Table 2). Even though tetrodotoxin (TTX)-sensitive brain-type sodium channel isoforms NaV1.1–NaV1.3 and NaV1.6 are the main channels e ...

rNaV1.3 = assay: Two-electrode voltage-clamp of NaV1.3 expressed in Xenopus laevis oocytes; format: cell-based, rat; settings: 10 μM toxin
Text: as §1, with “Oocytes were injected with 50 nL of cRNA at a concentration of 1 ng/nL using a microinjector (Drummond Scientific Company, Broomall, PA, USA). The oocytes were incubated in a solution containing (mM) the following: NaCl, 96; KCl, 2; CaCl2, 1.8; MgCl2, 2; and HEPES, 5 (pH 7.4). This solution was supplemented with 50 mg/L gentamicin sulfate.” left out
Two-electrode voltage-clamp recordings were performed at room temperature (18–22 °C) using a GeneClamp 500 amplifier (Molecular Devices, San Jose, CA, USA) controlled by a pClamp data acquisition system (Axon Instruments, Union City, CA, USA). Whole-cell currents from oocytes were recorded 1–4 d after mRNA injection. […]
For the electrophysiological analysis of toxins, a number of protocols were applied from a holding potential of −90 mV with a start-to-start frequency of 0.2 Hz. […] The current–voltage relationships were determined by 50-ms step depolarizations between −90 and 70 mV, using 5 mV increments. […] I30ms/Ipeak was measured at the same test voltage after addition of the toxin. […]

[3] = tested on: NaV channels (NaV1.1–NaV1.6, NaV1.8, BgNaV1, VdNaV1); assay: Electrophysiological screening on nine NaV subtypes (overall statements); format: cell-based; settings: for modulation of NaV channels (in words): 10 μM toxin, Xenopus oocytes; for phyla selectivity (in words): mammalian vs. insect/arachnid, 10 μM
Text: as §1, §2
as §3, with “protocol.” for “protocol. In this protocol, 100 ms conditioning 5 mV step prepulses ranging from −90 to 70 mV were followed by a 50-ms test pulse to −30 or −10 mV. Data were normalized to the maximal Na^+ current amplitude, plotted against prepulse potential, and fitted by using the Boltzmann function: INa/Imax = {(1 − C)/(1 + exp[(V − Vh)/k)]} + C, where Imax is the maximal INa, Vh is the voltage corresponding to half-maximal inactivation, V is the test voltage, k is the slope factor, and C is a constant representing a non-inactivating persistent fraction (close to 0 in control).”

[4] = Secondary structure content by CD spectroscopy; format: physicochemical; settings: water, 20 °C; for Unordered / α-Helices αD / α-Helices αR / α-Helices αtot: CONTIN; for α-Helices αD: distorted; for α-Helices αR: regular; for α-Helices αtot: sum
Experimental: CD spectra were measured in the range from 320 to 190 nm with a Chirascan-plus spectropolarimeter (Applied Photophysics, Leatherhead, UK). The instrument was calibrated with 10-camphorsulfonic acid ammonium salt, and a ratio of 2:1 was found between the positive CD band at 290 nm and the negative CD band at 192 nm. The measurements were carried out in bidistilled water at 20 °C using 0.1- and 1-cm path length cells in amide and aromatic regions, respectively. In the amide region (190–240 nm) of the CD spectrum, molar ellipticity [θ]λ (deg cm^2 dmol^−1) was calculated as [θ]λ = θobs × MRW/10 × C × L, where θobs is the observed ellipticity in degrees, MRW is the mean amino acid residue weight of 110 Da, L is the path length (cm), and C is the protein concentration (g/mL). In the aromatic region (240–320 nm) of the CD spectrum, results were expressed as molar ellipticity (the average molecular masses of RpII, RTX-III, and RTX-VI are 5378, 5287, and 5240 Da, respectively). The secondary structure contents were determined according to the method of Provencher and Glöckner, using their CONTIN program.

[5] = amplitude of toxin-induced effect at 30 ms (I30ms), Hill fit, Xenopus oocytes, means ± sem, n ≥ 5

Substance	EC50 (rNaV1.2; [5]) [nM]	EC50 (mNaV1.6) [nM]	EC50 (BgNaV1) [nM]	toxicity in mice (in words) (mice [1]; CD-1 mice)	LD50 (mice [2]; ref [8]) [mg/kg]	half-maximal effective concentration (EC50), NaV1.2 (rNaV1.2; [5])	effect on NaV1.3 current (in words) (rNaV1.3)	modulation of NaV channels (in words) [3]	phyla selectivity (in words) [3]	α-helices (in words) [4]	Unordered [4] [percentage]	α-Helices αD [4] [percentage]	α-Helices αR [4] [percentage]	α-Helices αtot [4] [percentage]	LD50 (mice [2]; ref [10]) [mg/kg]	effect on NaV1.2 current (in words) (rNaV1.2; Xenopus oocytes)	relative activity on NaV1.2 (in words) (rNaV1.2; compared to δ-SHTX-Hcr1f (Figure 6, Table 3))	relative potency on NaV1.6 (in words) (mNaV1.6; compared with RTX-III)	relative potency on BgNaV1 (in words) (BgNaV1; compared with RTX-III)	LD50 (mice [1]; mice) [mg/kg]
ASCKCDDDGPDVRSATFTGTVDFWNCNEGWEKCTAVYTPVASCCRKKK-NH2 (disulfide 3-43, 5-33, 26-44) [δ-SHTX-Hcr1f]	79.5 ± 4.3	183 ± 8.2	226 ± 12.3	consistent with the previously reported data for RpII	4.2															
H-GNCKCDDEGPYVRTAPLTGYVDLGYCNEGWEKCASYYSPIAECCRKKK-NH2 (disulfide 3-43, 5-33, 26-44) [RTX-III]		382 ± 5.8	978 ± 62.3			Not active	exhibited substantial activating effects on NaV1.3; also recorded: acted similarly on NaV1.3	modulate insect, arachnid (BgNaV1, VdNaV1), and mammalian CNS NaV channels (NaV1.1–NaV1.3, NaV1.6) but not skeletal muscle (NaV1.4), cardiac (NaV1.5), or PNS (NaV1.8) channels; also recorded: did not affect currents of skeletal muscle NaV1.4, cardiac NaV1.5, and PNS NaV1.8 channels	not to be phyla-selective; also recorded: non-phyla-selective	practically absent	40.1	0.4	0.1	0.5	0.0025					
I: TAPLTGYVDLGYCNEGWEKCASYYSPIAECCRKKK-NH2 / II: GNCKCDDEGPYV-OH (disulfide I:13-I:31, I:20-II:5, I:30-II:3) [RTX-VI]	121 ± 19.3	282 ± 7	761 ± 25.6				abolished its effect on the NaV1.3 current	modulate insect, arachnid (BgNaV1, VdNaV1), and mammalian CNS NaV channels (NaV1.1–NaV1.3, NaV1.6) but not skeletal muscle (NaV1.4), cardiac (NaV1.5), or PNS (NaV1.8) channels; also recorded: did not affect currents of skeletal muscle NaV1.4, cardiac NaV1.5, and PNS NaV1.8 channels	not to be phyla-selective; also recorded: non-phyla-selective	practically absent	38.3	0.3	0.0	0.3		modulated another subtype of the CNS channels, NaV1.2; also recorded: enhanced current through NaV1.2	lower activity on the NaV1.2 subtype compared to δ-SHTX-Hcr1f	more potent inhibitor of both NaV1.6 and BgNaV1 channels than RTX-III	more potent inhibitor of both NaV1.6 and BgNaV1 channels than RTX-III	> 10
